Test results reported in patent US12371454B2, “Cyclic peptide compound having Kras inhibitory action” (priority 2019, dated 2025).
Starred links: 1 amine or outer side, 2 acyl side, 3 side chain; linkers in the order of their positions; H or OH if unused. Positions of bridges follow the written chain, without caps; N, C: chain ends. Non-standard residues stand in square brackets, D forms with d. Residues, ends and D or L forms follow the SMILES beside them. *: point of attachment. hPhe(3-Cl-4-CF3) = N[C@@H](CCc1ccc(C(F)(F)F)c(Cl)c1)C(=O)O; NMeAla(4-thiazolyl) = CN[C@@H](Cc1cscn1)C(=O)O; NMePhe(4-Me) = CN[C@@H](Cc1ccc(C)cc1)C(=O)O; NMeNle(6-CHF2) = CN[C@@H](CCCCC(F)F)C(=O)O; NMedβ3hAla = C[C@H](CC(=O)[*:2])N(C)[*:1]; NMeAla(cPent) = CN[C@@H](CC1CCCC1)C(=O)O; NMeGly(cPent) = CN[C@H](C(=O)O)C1CCCC1; NMeGly(cBu) = CN[C@H](C(=O)O)C1CCC1; NMeCha = CN[C@@H](CC1CCCCC1)C(=O)O; NMeChg = CN[C@H](C(=O)O)C1CCCCC1; NMeI = CC[C@H](C)[C@H](NC)C(=O)O; Gly(cBu) = N[C@H](C(=O)O)C1CCC1; NMeD = CN[C@@H](CC(=O)O)C(=O)O; NMeL = CN[C@@H](CC(C)C)C(=O)O; NMeV = CN[C@H](C(=O)O)C(C)C; d(β3hA) = C[C@@H](N)CC(=O)O; Azetidin(1-yl) = C1CN(*)C1; Ac6c = NC1(C(=O)O)CCCCC1; Morpholide = C1CN(*)CCO1; NMeA = CN[C@@H](C)C(=O)O; Piperidide = C1CCN(*)CC1; Ac5c = NC1(C(=O)O)CCCC1; Aze = O=C(O)[C@@H]1CCN1; Sar = CNCC(=O)O

Columns and labels:
[1] = biological target: T1, Kras and SOS1 (biotin-tagged human Kras loaded with GDP, His-tagged human SOS1) (Homo sapiens, UniProt P01116, G12D); assay: Protein-protein interaction inhibition between Kras and SOS1 (KrasGl2D-SOS PPI) using AlphaScreen; assay type: binding; details: AlphaScreen; biotin-tagged human Kras loaded with GDP, His-tagged human SOS1; read-out: KRAS G12D-SOS PPI IC50
T1 construct: made in house; host or cells: E. coli (stated for Kras only)
T1 sequence (P01116 1-188 isoform P01116-2 G12D): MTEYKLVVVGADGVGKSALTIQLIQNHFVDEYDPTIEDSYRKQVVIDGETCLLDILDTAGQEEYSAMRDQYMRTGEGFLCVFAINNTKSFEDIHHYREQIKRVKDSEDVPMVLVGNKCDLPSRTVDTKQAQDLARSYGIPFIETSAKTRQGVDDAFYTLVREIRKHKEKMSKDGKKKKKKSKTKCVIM
How it was run: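 Kras was produced in E. coli, purified, then loaded with GDP. It was paired via streptavidin acceptor beads with His-SOS1 held on nickel donor beads, and proximity signal at 520-620 nm was read after 680 nm illumination.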

[2] = system: Human pancreatic cancer cell line AsPC-1; assay: Measurement of AsPC-1 cell growth inhibition (AsPC-1 CGI); assay type: cell-based; details: 96 h
How it was run: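 AsPC-1 cells in 15% FBS RPMI-1640 were exposed to test compound for 96 hours at 37° C, with CellTiter-Glo as endpoint.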

Row | Compound | IC50 [1] [nM] | IC50 [2] [nM]
1 | CC(C)C[C@H]1C(=O)N[C@@H](C2CCC2)C(=O)N(C)CC(=O)N(C)CC(=O)N(C)[C@@H](CC2CCCCC2)C(=O)N(C)CC(=O)N[C@@H](CCc2ccc(C(F)(F)F)c(Cl)c2)C(=O)N2CCC[C@H]2C(=O)NC2(CCCC2)C(=O)N(C)[C@@H](C2CCCCC2)C(=O)N(C)[C@H](C(=O)N2CCCCC2)CC(=O)N1C [Compound 411] ([NMeL][Gly(cBu)][Sar][Sar][NMeCha][Sar][hPhe(3-Cl-4-CF3)]P[Ac5c][NMeChg][NMeD]-Piperidide; lactam N-11) | 0.62 | 50 to 100
2 | CC[C@H](C)[C@@H]1NC(=O)[C@H](CC(C)C)N(C)C(=O)C[C@@H](C)N(C)C(=O)[C@H](C2CCCC2)N(C)C(=O)C2(CCCC2)NC(=O)[C@@H]2CCCN2C(=O)[C@H](CCc2ccc(C(F)(F)F)c(Cl)c2)NC(=O)CN(C)C(=O)[C@H](CC2CCCCC2)N(C)C(=O)CN(C)C(=O)CN(C)C1=O [Compound 420] (cyclo([Ac5c][NMeGly(cPent)][NMedβ3hAla][NMeL]I[Sar][Sar][NMeCha][Sar][hPhe(3-Cl-4-CF3)]P)) | 3.4 | 50 to 100
3 | CC[C@H](C)[C@@H]1NC(=O)[C@H](CCCCC(F)F)N(C)C(=O)C[C@@H](C(=O)N2CCCCC2)N(C)C(=O)[C@H](C2CCCCC2)N(C)C(=O)C2(CCCC2)NC(=O)[C@@H]2CCCN2C(=O)[C@H](CCc2ccc(C(F)(F)F)c(Cl)c2)NC(=O)CN(C)C(=O)[C@H](CC2CCCCC2)N(C)C(=O)CN(C)C(=O)CN(C)C1=O [Compound 425] ([NMeNle(6-CHF2)]I[Sar][Sar][NMeCha][Sar][hPhe(3-Cl-4-CF3)]P[Ac5c][NMeChg][NMeD]-Piperidide; lactam N-11) | 0.57 | 50 to 100
4 | CC[C@H](C)[C@@H]1NC(=O)[C@H](C2CCC2)N(C)C(=O)C[C@@H](C(=O)N2CCOCC2)N(C)C(=O)[C@H](C2CCCCC2)N(C)C(=O)C2(CCCC2)NC(=O)[C@@H]2CCCN2C(=O)[C@H](CCc2ccc(C(F)(F)F)c(Cl)c2)NC(=O)CN(C)C(=O)[C@H](CC2CCCC2)N(C)C(=O)CN(C)C(=O)CN(C)C1=O [Compound 434] ([NMeGly(cBu)]I[Sar][Sar][NMeAla(cPent)][Sar][hPhe(3-Cl-4-CF3)]P[Ac5c][NMeChg][NMeD]-Morpholide; lactam N-11) | 0.52 | 50 to 100
5 | CC[C@H](C)[C@@H]1NC(=O)[C@H](CC(C)C)N(C)C(=O)C[C@@H](C(=O)N2CCC2)N(C)C(=O)[C@H](C2CCCCC2)N(C)C(=O)C2(CCCC2)NC(=O)[C@@H]2CCCN2C(=O)[C@H](CCc2ccc(C(F)(F)F)c(Cl)c2)NC(=O)CN(C)C(=O)[C@H](CC2CCCCC2)N(C)C(=O)CN(C)C(=O)CN(C)C1=O [Compound 437] ([NMeL]I[Sar][Sar][NMeCha][Sar][hPhe(3-Cl-4-CF3)]P[Ac5c][NMeChg][NMeD]-{Azetidin(1-yl)}; lactam N-11) | 0.47 | 50 to 100
6 | CC[C@H](C)[C@@H]1NC(=O)[C@H](CC(C)C)N(C)C(=O)C[C@@H](C(=O)N2CCCCC2)N(C)C(=O)[C@H](C(C)C)N(C)C(=O)C2(CCCC2)NC(=O)[C@@H]2CCCN2C(=O)[C@H](CCc2ccc(C(F)(F)F)c(Cl)c2)NC(=O)CN(C)C(=O)[C@H](CC2CCCCC2)N(C)C(=O)CN(C)C(=O)CN(C)C1=O [Compound 438] ([NMeL]I[Sar][Sar][NMeCha][Sar][hPhe(3-Cl-4-CF3)]P[Ac5c][NMeV][NMeD]-Piperidide; lactam N-11) | 6 | 50 to 100
7 | CC[C@H](C)[C@@H]1NC(=O)[C@H](CC(C)C)N(C)C(=O)C[C@@H](C)NC(=O)[C@H](C(C)C)N(C)C(=O)C2(CCCCC2)NC(=O)[C@@H]2CCCN2C(=O)[C@H](CCc2ccc(C(F)(F)F)c(Cl)c2)NC(=O)CN(C)C(=O)[C@H](CC2CCCCC2)N(C)C(=O)CN(C)C(=O)CN(C)C1=O [Compound 439] (cyclo([Ac6c][NMeV][d(β3hA)][NMeL]I[Sar][Sar][NMeCha][Sar][hPhe(3-Cl-4-CF3)]P)) | 52 | 100 to 500
8 | CC[C@H](C)[C@@H]1NC(=O)[C@H](CC(C)C)N(C)C(=O)C[C@@H](C(=O)N(C)C)N(C)C(=O)[C@H]([C@@H](C)CC)N(C)C(=O)C2(CCCC2)NC(=O)[C@H](Cc2cscn2)N(C)C(=O)[C@H](CCc2ccc(C(F)(F)F)c(Cl)c2)NC(=O)CN(C)C(=O)[C@H](Cc2ccc(C)cc2)N(C)C(=O)[C@@H]2CCN2C(=O)[C@H](C)N(C)C1=O [Compound 441] ([NMeL]I[NMeA][Aze][NMePhe(4-Me)][Sar][hPhe(3-Cl-4-CF3)][NMeAla(4-thiazolyl)][Ac5c][NMeI][NMeD]-NMe2; lactam N-11) | 0.73 | 20 to 50
